Assay results from patent publication US8906925B2, “Pyrido[4,3-B]indoles containing rigid moieties” (Medivation Technologies, Inc., priority 2008, dated 2014).

Columns and labels:
[1] = target: T1, human recombinant histamine H2 receptor (Homo sapiens, UniProt P25021); assay: Histamine H2 radioligand binding ([125I]Aminopotentidine); conditions: read-out: Histamine Binding (1 μM) H2, percent inhibition of specific binding, 1 μM
T1 construct: expressed in transfected cells; host or cells: Chinese hamster ovary (CHO) K1 cells
Outline: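 Receptor source: human recombinant H2 in CHO-K1 cells, assayed in 50 mM phosphate pH 7.4. Competition against 0.1 nM [125I]aminopotentidine, 120 min, 25 °C; 3 μM tiotidine sets nonspecific binding, filter-bound counts give specific binding.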

[2] = target: human dopamine D2L receptor (Homo sapiens, UniProt P14416); assay: Dopamine D2L radioligand binding ([3H]Spiperone); conditions: percent inhibition of specific binding, compound at 1 μM; for Inhibition of ligand binding, Dopamine D2L: 1 µM; for inhibition at 1 µM: read-out: Inhibition of ligand binding, Dopamine D2L
Excerpt: Non-specific binding was estimated in the presence of […] Haloperidol. Receptor proteins were filtered and washed, the filters were then counted to determine [^3H]Spiperone specifically bound. […] Biochemical assay results are presented as the percent inhibition of specific binding in Table 9.

[3] = target: T2, human recombinant serotonin (5-Hydroxytryptamine) 5-HT2A receptor (Homo sapiens, UniProt P28223); assay: Serotonin 5-HT2A radioligand binding ([3H]Ketanserin); conditions: for inhibition at 0.1 µM: read-out: Inhibition of ligand binding, Serotonin 5-HT2A (percent inhibition of specific binding), compound at 0.1 μM; for inhibition at 1 µM: read-out: Inhibition of ligand binding, Serotonin 5-HT2A (percent inhibition of specific binding), compound at 1 μM
T2 construct: expressed in transfected cells; host or cells: Chinese hamster ovary (CHO-K1) cells
Procedure: Compounds of the invention were incubated with 0.5 nM [^3H]Ketanserin for 60 min. at 25° C. Non-specific binding was estimated in the presence of 1 μM Mianserin. Receptor proteins were filtered and washed, the filters were then counted to determine [^3H]Ketanserin specifically bound.

[4] = target: T3, human recombinant serotonin (5-Hydroxytryptamine) 5-HT2C receptor (Homo sapiens, UniProt P28335); assay: Serotonin 5-HT2C radioligand binding ([3H]Mesulergine); conditions: for inhibition at 0.1 µM: compound at 0.1 μM; for inhibition at 0.1 µM / inhibition at 1 µM: read-out: Inhibition of ligand binding, Serotonin 5-HT2C (percent inhibition of specific binding)
T3 construct: expressed in transfected cells; host or cells: Chinese hamster ovary (CHO-K1) cells
T3 sequence (P28335 33-458): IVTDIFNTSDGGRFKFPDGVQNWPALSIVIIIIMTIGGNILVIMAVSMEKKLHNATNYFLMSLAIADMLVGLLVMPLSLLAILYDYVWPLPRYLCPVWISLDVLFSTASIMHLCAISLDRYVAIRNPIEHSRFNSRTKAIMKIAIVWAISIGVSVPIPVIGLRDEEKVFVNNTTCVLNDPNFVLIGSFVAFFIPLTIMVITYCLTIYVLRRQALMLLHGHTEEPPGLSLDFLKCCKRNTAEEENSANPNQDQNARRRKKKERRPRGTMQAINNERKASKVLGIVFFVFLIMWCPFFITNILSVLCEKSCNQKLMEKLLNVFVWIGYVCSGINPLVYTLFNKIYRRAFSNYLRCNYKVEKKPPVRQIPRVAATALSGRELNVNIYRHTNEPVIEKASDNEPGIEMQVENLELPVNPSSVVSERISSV
Outline: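 Compounds tested at 1 μM or lower (1% DMSO vehicle) for displacement of 1 nM [3H]Mesulergine over 60 min at 25° C. Specific binding determined by filtration counting, with 1 μM Mianserin defining non-specific binding; values are percent inhibition.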

[5] = target: T4, human recombinant serotonin (5-Hydroxytryptamine) 5-HT6 receptor (Homo sapiens, UniProt P50406); assay: Serotonin 5-HT6 radioligand binding ([3H]LSD); conditions: read-out: Inhibition of ligand binding, Serotonin 5-HT6 (percent inhibition of specific binding); for inhibition at 0.1 µM: compound at 0.1 μM; for inhibition at 1 µM: compound at 1 μM
T4 construct: expressed in transfected cells; host or cells: human HeLa cells
Procedure: Compounds of the invention were incubated with 1.5 nM [3H]Lysergic acid diethylamide (LSD) for 120 min. at 37° C. […] Receptor proteins were filtered and washed, the filters were then counted to determine [3H]LSD specifically bound. Compounds were screened at 1 μM or lower, using 1% DMSO as vehicle. Biochemical assay results are presented as the percent inhibition of specific binding in Table 10.

[6] = target: human recombinant serotonin (5-Hydroxytryptamine) 5-HT7 receptor (Homo sapiens, UniProt P34969); assay: Serotonin 5-HT7 radioligand binding ([3H]LSD); conditions: for inhibition at 0.1 µM: compound at 0.1 μM; for inhibition at 0.1 µM / inhibition at 1 µM: read-out: Inhibition of ligand binding, Serotonin 5-HT7 (percent inhibition of specific binding)
Excerpt: Receptor proteins were filtered and washed, the filters were then counted to determine [^3H]LSD specifically bound.

[7] = target: T5, human recombinant serotonin 5-HT1B receptor (Homo sapiens, UniProt P28222); assay: 5-HT1B radioligand binding competition assay ([3H]5-CT, CHO-K1 membranes); conditions: for 5-HT1B (5 μM) % Binding relative to bound radioligand: in duplicate, average
T5 construct: expressed in transfected cells; host or cells: CHO-K1 cell line, membrane extracts
Procedure: To determine the binding activity at the human recombinant serotonin 5-HT1B receptor of compounds of the invention, CHO-K1 cell line expressing the human 5-HT1B recombinant receptor was amplified to prepare membranes used for the radioligand binding assay throughout the study. Radioligand binding competition on 5-HT1B was performed by adding successively in the wells of a 96 well plate (Master Block, Greiner, 786201). […] The plate was incubated 60 min at 25° C. in a water bath and then filtered over GF/B filters (Perkin Elmer, 6005177, presoaked in 0.5% PE1 for 2 h at room temperature) with a Filtration unit (Perkin Elmer). The filters were washed 3× with 0.5 mL of ice-cold washing buffer (50 mM Tris pH 7.4). 50 μL Microscint 20 (Packard) was added and the plate was incubated 15 min on an orbital shaker and then counted with a TopCount™ for 1 min/well.
The reference value thus obtained for the test was compared to a historical value obtained from the same receptor and used to validate the experimental session. […] For replicate determinations, the maximum variability tolerated in the test was of +/−20% around the average of the replicates.
Compounds were tested for binding activity in the radioligand binding competition assay on human 5-HT1B receptor, at one concentration […], in duplicate. Dose-response data from test compounds were analyzed with XLfit (IDBS) software using nonlinear regression applied to a sigmoidal dose-response model.
Dose-response data was analyzed with XLfit (IDBS) software using non-linear regression applied to a sigmoidal dose-response model.

[8] = target: histamine receptor H1 (Homo sapiens, UniProt P35367); assay: Histamine H1 radioligand binding ([3H]Pyrilamine); conditions: for inhibition at 1 µM: read-out: Histamine Binding (1 μM) H1, percent inhibition of specific binding, 1 μM
Outline: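 Values are percent inhibition of specific [3H]pyrilamine (1.2 nM) binding with compounds at ≤1 μM (1% DMSO vehicle); 180 min incubation at 25 °C, pH 7.4 Tris buffer, on CHO-expressed human H1 receptor; 1 μM pyrilamine defined nonspecific binding, bound ligand counted after filtration.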

T4 sequence (P50406 whole entry): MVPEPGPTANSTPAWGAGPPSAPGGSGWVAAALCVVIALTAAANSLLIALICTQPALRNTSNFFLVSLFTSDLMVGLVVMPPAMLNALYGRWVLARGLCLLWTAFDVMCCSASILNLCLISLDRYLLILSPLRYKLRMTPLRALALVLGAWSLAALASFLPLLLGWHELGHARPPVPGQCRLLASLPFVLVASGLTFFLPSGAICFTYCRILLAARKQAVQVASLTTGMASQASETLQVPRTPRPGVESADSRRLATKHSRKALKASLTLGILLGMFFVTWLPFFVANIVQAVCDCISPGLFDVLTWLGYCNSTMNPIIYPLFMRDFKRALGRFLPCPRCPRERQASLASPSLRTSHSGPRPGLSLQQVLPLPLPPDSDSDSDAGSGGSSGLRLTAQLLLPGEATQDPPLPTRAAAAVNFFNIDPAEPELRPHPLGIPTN
Sequence of human recombinant serotonin (5-Hydroxytryptamine) 5-HT7 receptor (P34969 whole entry): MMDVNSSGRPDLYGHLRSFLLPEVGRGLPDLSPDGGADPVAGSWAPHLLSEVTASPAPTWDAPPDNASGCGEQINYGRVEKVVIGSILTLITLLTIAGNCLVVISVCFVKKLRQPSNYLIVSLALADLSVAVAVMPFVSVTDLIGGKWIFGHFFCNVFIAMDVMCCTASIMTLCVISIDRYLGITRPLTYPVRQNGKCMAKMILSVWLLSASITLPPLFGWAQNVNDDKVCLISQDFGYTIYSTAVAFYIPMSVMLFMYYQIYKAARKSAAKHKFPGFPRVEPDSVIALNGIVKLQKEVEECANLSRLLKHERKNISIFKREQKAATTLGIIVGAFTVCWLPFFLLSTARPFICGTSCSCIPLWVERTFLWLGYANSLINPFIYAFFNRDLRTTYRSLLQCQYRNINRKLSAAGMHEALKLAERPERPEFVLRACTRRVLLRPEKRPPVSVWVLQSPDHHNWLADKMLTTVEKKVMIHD
T1 sequence (P25021 whole entry): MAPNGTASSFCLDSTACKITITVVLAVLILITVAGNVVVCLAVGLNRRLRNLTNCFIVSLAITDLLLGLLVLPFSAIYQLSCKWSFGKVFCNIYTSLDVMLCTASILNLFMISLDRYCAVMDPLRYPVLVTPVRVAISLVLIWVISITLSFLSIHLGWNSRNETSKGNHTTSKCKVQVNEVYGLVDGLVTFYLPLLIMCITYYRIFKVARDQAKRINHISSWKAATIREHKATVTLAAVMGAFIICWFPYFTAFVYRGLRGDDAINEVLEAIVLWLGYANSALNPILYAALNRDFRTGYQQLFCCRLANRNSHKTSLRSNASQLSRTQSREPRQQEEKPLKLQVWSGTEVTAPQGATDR
T2 sequence (P28223 whole entry): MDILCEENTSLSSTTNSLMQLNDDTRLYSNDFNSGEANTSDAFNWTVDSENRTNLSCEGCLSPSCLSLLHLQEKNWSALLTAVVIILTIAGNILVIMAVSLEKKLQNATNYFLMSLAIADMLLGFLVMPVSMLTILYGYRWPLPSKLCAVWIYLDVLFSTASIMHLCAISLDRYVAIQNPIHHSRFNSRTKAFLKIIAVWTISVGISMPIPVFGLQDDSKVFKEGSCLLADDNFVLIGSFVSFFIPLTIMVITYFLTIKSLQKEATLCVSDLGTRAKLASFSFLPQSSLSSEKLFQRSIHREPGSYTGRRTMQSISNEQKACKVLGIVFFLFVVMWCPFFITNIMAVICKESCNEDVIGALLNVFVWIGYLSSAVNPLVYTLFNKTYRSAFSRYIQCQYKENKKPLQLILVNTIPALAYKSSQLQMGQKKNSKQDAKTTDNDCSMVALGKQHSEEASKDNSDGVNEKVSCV
Sequence of human dopamine D2L receptor (P14416 whole entry): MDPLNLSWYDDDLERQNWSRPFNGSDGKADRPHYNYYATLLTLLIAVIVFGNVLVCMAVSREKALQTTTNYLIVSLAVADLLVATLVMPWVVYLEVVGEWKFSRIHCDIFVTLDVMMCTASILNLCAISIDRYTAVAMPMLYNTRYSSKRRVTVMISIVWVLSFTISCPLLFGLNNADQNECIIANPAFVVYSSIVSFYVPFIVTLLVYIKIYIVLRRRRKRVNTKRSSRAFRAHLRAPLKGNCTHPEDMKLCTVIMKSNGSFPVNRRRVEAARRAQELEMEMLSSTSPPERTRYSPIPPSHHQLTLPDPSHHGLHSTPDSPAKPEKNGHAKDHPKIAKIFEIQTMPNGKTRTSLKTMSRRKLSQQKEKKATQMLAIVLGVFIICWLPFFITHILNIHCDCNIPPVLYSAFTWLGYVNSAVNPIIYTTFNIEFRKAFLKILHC
Sequence of histamine receptor H1 (P35367 whole entry): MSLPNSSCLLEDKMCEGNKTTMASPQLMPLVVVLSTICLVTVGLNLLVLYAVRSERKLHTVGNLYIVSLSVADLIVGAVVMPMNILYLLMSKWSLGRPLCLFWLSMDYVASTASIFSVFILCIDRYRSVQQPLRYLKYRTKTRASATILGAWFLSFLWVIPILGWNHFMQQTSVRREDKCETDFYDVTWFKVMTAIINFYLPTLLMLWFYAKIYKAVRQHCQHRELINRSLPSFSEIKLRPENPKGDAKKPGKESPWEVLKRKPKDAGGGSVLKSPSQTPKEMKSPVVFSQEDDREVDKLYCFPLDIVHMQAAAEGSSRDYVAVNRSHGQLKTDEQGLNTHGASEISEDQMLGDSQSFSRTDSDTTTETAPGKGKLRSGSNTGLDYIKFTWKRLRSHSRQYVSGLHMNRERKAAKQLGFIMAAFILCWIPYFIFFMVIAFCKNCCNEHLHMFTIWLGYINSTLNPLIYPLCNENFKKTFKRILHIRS
T5 sequence (P28222 whole entry): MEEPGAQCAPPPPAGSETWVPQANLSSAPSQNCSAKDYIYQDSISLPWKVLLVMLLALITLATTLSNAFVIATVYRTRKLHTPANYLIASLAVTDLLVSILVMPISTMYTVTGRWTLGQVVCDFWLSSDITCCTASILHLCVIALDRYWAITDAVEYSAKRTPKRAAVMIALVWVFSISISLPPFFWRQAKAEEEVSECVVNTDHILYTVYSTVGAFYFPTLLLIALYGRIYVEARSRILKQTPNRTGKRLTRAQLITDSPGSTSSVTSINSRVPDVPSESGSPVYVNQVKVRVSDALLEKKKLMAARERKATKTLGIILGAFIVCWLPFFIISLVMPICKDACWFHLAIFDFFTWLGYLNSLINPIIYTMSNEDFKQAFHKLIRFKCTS

Structure (SMILES) | inhibition at 1 µM [1] [%] | Inhibition of ligand binding, Dopamine D2L [2] [%] | inhibition at 1 µM [2] [%] | inhibition at 0.1 µM [3] [%] | inhibition at 1 µM [3] [%] | inhibition at 0.1 µM [4] [%] | inhibition at 1 µM ([4]; compound at 1 μM) [%] | inhibition at 0.1 µM [5] [%] | inhibition at 1 µM [5] [%] | inhibition at 0.1 µM [6] [%] | inhibition at 1 µM ([6]; compound at 1 μM) [%] | 5-HT1B (5 μM) % Binding relative to bound radioligand [7] [%] | inhibition at 1 µM [8] [%] | also measured
C/C(=C\n1c2c(c3ccccc31)CN(C)CC2)c1ccncc1 [Compound 217, (E)-2-methyl-5-(2-(pyridin-4-yl)prop-1-enyl)-2,3,4,5-tetrahydro-1H-pyrido[4,3-b]indole] | 50 | 88 | 86 | 96 | 98 | 62 | 87 | 97 | 102 | 58 | 73 | 10 |  | Inhibition of ligand binding, Serotonin 5-HT2C (percent inhibition of specific binding) ([4]; compound at 1 μM, 1 µM): 92%; Inhibition of ligand binding, Serotonin 5-HT7 (percent inhibition of specific binding) ([6]; compound at 1 μM, 1 µM): 91%
CN1CCc2c(c3cccc(Cl)c3n2CC(C)(O)c2ccncc2)C1 (stereo not drawn) [Compound 182, 1-(6-chloro-2-methyl-3,4-dihydro-1H-pyrido[4,3-b]indol-5(2H)-yl)-2-(pyridin-4-yl)propan-2-ol] | 53 |  | 8 |  | 91 |  | 93 |  | 47 |  | 54 | 3 | 26 | 
C/C(=C\n1c2c(c3cc(C)ccc31)CN(C)CC2)c1cccnc1 [Compound 91, (E)-2,3,4,5-tetrahydro-2,8-dimethyl-5-(2-(pyridin-3-yl)prop-1-enyl)-1H-pyrido[4,3-b]indole] | 52 |  | 27 |  | 98 |  | 100 |  | 76 |  | 95 | 9 | 11 | IC50 [7]: 365 nM; % Binding relative to bound radioligand (5-HT1B) ([7]; Conc. 0.08 nM): 120%; % Binding relative to bound radioligand (5-HT1B) ([7]; Conc. 5 nM): 129%; % Binding relative to bound radioligand (5-HT1B) ([7]; Conc. 20 nM): 113%; % Binding relative to bound radioligand (5-HT1B) ([7]; Conc. 78 nM): 103%; % Binding relative to bound radioligand (5-HT1B) ([7]; Conc. 313 nM): 66%; % Binding relative to bound radioligand (5-HT1B) ([7]; Conc. 1250 nM): 31%; % Binding relative to bound radioligand (5-HT1B) ([7]; Conc. 20000 nM): 1%; % Binding relative to bound radioligand (5-HT1B) ([7]; Conc. 50000 nM): −5%
C/C(=C/n1c2c(c3cc(C)ccc31)CN(C)CC2)c1ccncc1 [Compound 224, (Z)-2,8-dimethyl-5-(2-(pyridin-4-yl)prop-1-enyl)-2,3,4,5-tetrahydro-1H-pyrido[4,3-b]indole] | 58 | 80 | 65 | 92 | 99 | 95 | 97 | 96 | 102 | 88 | 91 | 10 | 24 | Histamine Binding (1 μM) H1, percent inhibition of specific binding [8]: 26%
C/C(=C\n1c2c(c3cc(C)ccc31)CN(C)C(C)C2)c1ccc(C)nc1 (stereo not drawn) [Compound 259, (E)-2,3,8-trimethyl-5-(2-(6-methylpyridin-3-yl)prop-1-enyl)-2,3,4,5-tetrahydro-1H-pyrido[4,3-b]indole] |  |  | -12 | 96 |  | 92 |  | 21 |  | 81 |  | 25 | 10 | 
C/C(=C\n1c2c(c3cccc(F)c31)CN(C)CC2)c1ccncc1 [Compound 223, (E)-6-fluoro-2-methyl-5-(2-(pyridin-4-yl)prop-1-enyl)-2,3,4,5-tetrahydro-1H-pyrido[4,3-b]indole] | 44 | 97 | 96 | 97 | 95 | 81 | 93 | 104 | 103 | 67 | 91 | 4 | 6 | Histamine Binding (1 μM) H1, percent inhibition of specific binding [8]: 11%
C/C(=C/n1c2c(c3cc(C)ccc31)CN(C)CC2)c1ccc(F)cc1F [Compound 274, (Z)-5-(2-(2,4-difluorophenyl)prop-1-enyl)-2,8-dimethyl-2,3,4,5-tetrahydro-1H-pyrido[4,3-b]indole] |  |  | 56 | 98 |  | 99 |  | 97 |  | 94 |  | 6 | 72 | 
